From US8603999B2, “Amphiphile prodrugs” (Commonwealth Scientific and Industrial Research Organisation, priority 2008, dated 2013) come the findings set out here.

The subject of series [1] is Carboxylesterase from porcine liver. The experiment in a line: Hydrolysis of prodrugs by porcine liver carboxylesterase (CES), LC/MS. The procedure:
High purity Capecitabine (as solid crystals) was purchased from Xingcheng Chemphar Co., Ltd, P.R.China. […] Millipore water was used to prepare the prodrugs solutions with appropriate concentrations, while phosphate buffered saline (pH 7.4, PBS) was used in the preparation of different concentrations of enzyme.
Stock solution of Capecitabine was prepared by dissolving pure white Capecitabine into warm water. 1 mg/mL of Capecitabine solution was then further obtained by diluting the stock solution with milli-Q water. […] Prior to the experiments, prodrug particles were incubated at 37° C. for at least two weeks to achieve the equilibrium state of certain phases.
Stock solution of 10 mg/mL carboxylesterase solution was prepared by weighting 10 mg of powder enzyme in 1 mL of PBS buffer and shaking gently by hand. The concentration of the enzyme solution was adjusted to 1 mg/mL and 0.01 mg/mL by dilution of the stock solution. These solutions were used for the enzymatic hydrolysis of the prodrugs and Capecitabine respectively. […]
To measure the rate of the enzymatic reaction precisely, the starting substrate and the enzyme solution were mixed for a defined time by rapidly mixing together the two stock solutions and shaking. The time at which enzyme solution was added was taken as time zero for the hydrolysis reaction. The mixture was maintained at 37° C. throughout the experiment. The concentration of the hydrolysis product was then measured at various times using LC/MS (Finnigan LCQ Series, Thermo Scientific, USA). The time at which the sample was injected into the LC column was taken to be the reaction time for such sample. The hydrolysis progress curve showing the decrease in the concentration of original substrate was subsequently plotted.
The concentrations of prodrugs were determined using Thermo Finnigan LC/MS equipped with an atmospheric pressure chemical ionization (APCI) probe in positive ion mode. 10 μL of sample withdrawn from the reaction solution was injected directly into a Platinum EPS C18 100 Å 5u LC column with the length of 150 mm and internal diameter of 4.6 mm (Alltech, Australia). A mixture of 30% LCMS grade water and 70% Methanol was employed as mobile phase with the flow rate of 1 ml/min. The sample after the column separation was eluted to APCI source (MS full positive scan) to determine the molecular weight of the substrates. The vaporizer temperature of the APCI probe was set at 450° C. and the capillary temperature was operated at 200° C. The sample temperature was well maintained at 37° C. during the entire measurement by incubating the sample in the temperature controlled auto-sampler. Data were acquired and processed with Xcalibur Quan chromatography software.
The decreased concentration of substrate and the increased hydrolysis product 5′-dFCyd were detected based on the different retention time on chromatogram and m/z value in the MS positive scan. […] The decreased/increased ratio of reactant/5′dFCyd was determined by comparing the integration areas of the corresponding peaks.
The enzyme hydrolysis reaction was plotted as the logarithm of the ratio of original prodrug concentration to the decreased concentration of prodrug at a certain incubation time as a function of reaction time (Ln [S]0/[S] vs T).
In order to compare the enzymatic activity for each individual substrate to CES, we calculate a global reaction rate expressed as a specific activity (SA) (μmol/min/mg enzyme): SA=Δ[S]/(Δt·[CCES])
Here, as is common when discussing the SA, [CCES] is the enzyme concentration in mg/ml, Δ[S] is the substrate concentration change in μmol/ml during Δt time.

A short description of series [2]: Particle size distribution of dispersions by dynamic light scattering. The series is classed as physicochemical. On the procedure: BASF) equivalent to 10% (w/w) of neat amphiphile and absolute ethanol were weighed in a sample vial. […] These crude dispersions were then passed through a series of PC membranes from the size range from 1 um to 100 nm to obtain a more uniform size distribution for the particles. The equipment used for size control is a mini-extruder (Avanti Polar Lipids, USA). […] The final concentration of colloidosomes were determined by ultra performance liquid chromatography (UPLC) and then diluted to 1 mg/mL for use in the enzyme hydrolysis study The particle size distribution and morphology of the above suspensions were determined using the method as described herein by using zetasizer and cryo-TEM characterisation methods. Solid lipid particles of prodrug 5-FCPal were prepared using mechanical methods. […] The melted prodrug and poloxamer mixture was then transferred to 40 mL of pre-warmed water upon vigorous vortexing. The mixture was then sheared with a rough homogenizer (Ultra Turrax®, T18 Basic, IKA® Werke GmbH & Co. KG, Germany) at 14,000 rpm for 10 min. The resultant dispersion was further transferred to the ultrasonic benchtop cleaner for a few hours of ultra sonication. […] Determination of the particle size distribution of the colloidosome and solid lipid particle dispersions were carried out using a Zetasizer (nano zs, Malvern, England) equipped with a He—Ne Laser (4 mw, 633 nm) and an avalanche photodiode detector. […] […] The size distribution was recorded by intensity.

A short description of series [3]: Lyotropic phase behaviour: water penetration scans, SAXS and XRD. In kind it is physicochemical. Conditions: for Lattice parameter: in excess water, SAXS. The text has this:
Lyotropic mesophase behaviour was studied using water penetration experiments. Neat amphiphile was placed on a glass slide, melted and cooled to facilitate sample homogenization and then covered with a glass cover slip. A few drops of Milli-Q water were then introduced to the edge of the cover slip which was drawn in by capillary action resulting in a concentration gradient from pure amphiphile in the centre to pure water around the edges of the cover slip. The generated mesophases were identified by their characteristic birefringent textures. Samples were then heated at 2° C./min from room temperature to ˜99° C. using an FP90 Linkam hotstage (Linkam Scientific Instruments, England). Thermotropic phase behaviour was also examined in the similar method but in the absence of water. The phases were viewed using an Olympus GX51 inverted polarising microscope (Olympus Australia Pty. Ltd, Australia) equipped with an Olympus C-5060 digital camera for image capture. All images were taken with 100× magnification unless elsewhere stated. […] The bulk phase of the binary amphiphile/water system was prepared by weighing the appropriate amount of sample and water in a sample vial. For those samples requiring pre-treatment, the samples were quickly melted in a pre-heated temperature controlled silicon-oil heating bath prior to addition of water. […] The prepared samples were analysed using an Anton-Paar SAXSess (Graz, Austria) with PANalytical PW3830 stand-alone X-ray generator operating at 40 kv, 50 mA with a sealed-tube Cu anode (λCu—Kα=0.154 nm). The samples were loaded into a paste cell sample holder at room temperature. […] Temperature control was via a TCU Temperature Control Unit (Anton Paar). […] The scattering results were recorded and analysed by the accompanied Anton Paar software.

A short description of series [4]: Thermal decomposition by TGA. In kind it is physicochemical. The settings on record: neat prodrug.
The subject of series [5] is 4T1 cells (mouse breast cancer cells). As to the kind of experiment: 4T1 mouse breast tumour in BALB/c mice, oral daily dosing for 21 days (Example 6). The series is classed as in vivo. On the procedure: 90 female BALB/c were injected with 5×10^4 4T1 cells (mouse breast cancer cells) in the second mammary fat pad on the right hand side. The tumour was allowed to form for 6 days prior to drug administration. On day 6, tumours were palpable in most of the mice. […] Mice were placed into groups of 6, and 15 different treatments were administered orally on a daily basis for 21 days.
The length and breadth of the tumours were measured and recorded on day 1, 4, 7, 14, and 21 of the drug administration. On Day 22, mice were euthanized. Blood was collected via cardiac puncture, followed by removal of the tumour, liver, spleen and kidney for histological analysis. Lungs were injected with indium ink prior to removal to allow for quantification of the number of lung metastasis in each animal.

The next series has as its system 4T1 tumour. As to the kind of experiment: Second 4T1 tumour study, daily dosing for 17 days (Example 7). From the text:
Also, the dosage of both compounds was increased to 1.5 mmol for each treatment.

The mark [6] stands for this setting: porcine liver CES, 37° C., enzyme 0.5 mg/mL for prodrugs.
Setting [7] is: porcine liver CES, 37° C., enzyme 0.5 mg/mL for prodrugs, 0.005 mg/ml for Capecitabine.
Setting [8] is: DLS at 25° C., 5-FCPhy and 5-FCOle after membrane extrusion, 5-FCPal solid lipid particles.

As for “5′-deoxy-5-fluoro-N^4-(3,7,11,15-tetramethyl-hexadecyl-1-oxycarbonyl)cytidine [Prodrug 5-FCPhy]”, the “SA relative to 5-FCPal” value in series [1] (CES hydrolysis) is “about 4 times”. In series [1] (setting [6]), the Specific Activity (SA) at time t = 12 h is 0.89 µmol/min/mg and the Specific Activity (SA) at time t = 24 h was 1.15 µmol/min/mg. Moreover, in series [1] (setting [7]), the Specific Activity (SA) at time t = 1 h was 1.03 µmol/min/mg, the Specific Activity (SA) at time t = 2 h is 1.3 µmol/min/mg and the Specific Activity (SA) at time t = 6 h was 0.67 µmol/min/mg. Also, in series [2] (setting [8]), the “mean (average) particle size” value is on record as 164 nm and the particle size distribution was 100-300 nm. In series [2] (dispersions used in the hydrolysis study, physiological temperature), the “Average Particle size” value came out at 219 nm. For the same substance, the “lyotropic phase behaviour in water penetration scans” value in series [3] (concentration gradient from neat amphiphile to pure water, heated from room temperature) is 3D inversed bicontinous cubic phase (Pn3m space group) initially and then transform to 2D hexagonal phase. The Lattice parameter in series [3] (37° C.) is listed as 5.60 nm. For the same substance, the Lattice parameter entry in series [3] (RT (25° C.)) is recorded as “RT: H2(5.82 nm)”. In addition, in series [3] (particle form in water at physiological temperature), the Lyotropic phase behaviour result is given as “Hexosome”. The Phases entry in series [3] (without water, RT, 37° C., equilibrated) was “Amorphous”. Also, the “temperature at which decomposition starts (TGA)” value in series [4] turned out to be 95 °C. Further, the “overall tumour volume at day 21” value in series [5] (4T1 tumour, oral daily, day 21) was “second smallest overall tumour volume”. In addition, in series [5] (4T1 tumour-bearing BALB/c mice, oral daily for 21 days), the “behaviour and appearance of the treated mice” value is “active and healthy”. The “tumours from animals sacrificed at 17 days (images)” value in the series on 4T1 tumour (FIG. 19) was “significantly smaller tumours”. The “spleens from animals sacrificed at 17 days (images)” value in the series on 4T1 tumour (mouse, in vivo) is “normal spleens”.
